Test results as given in patent US20100069387A1, “IKK Inhibitors for the Treatment of Endometriosis” (priority 2005, published 2010).
Values belong to the molecule of their own block, whether it stands above or below them.

How the values were obtained:
[1] = cited from earlier work
[2] = system: endometriotic lesions; conditions: control treatment; earlier work using this model; cited from earlier work
[3] = system: endometriotic lesions; experiment: Nude mouse xenograft model of endometriosis (human endometrial tissue injected in ovarectomized nude mice); type: in vivo; conditions: for Lesion (% Progesterone) Compared to progesterone treated group, decrease: treatment started 10 days after tissue injection
Experimental: Human endometrial tissue was injected in ovarectomized nude mice to establish the disease (Bruner-Tran et al 2002). In brief, endometrial biopsies obtained from normal volunteers or from endometriotic patients were cut into small pieces and cultured in the presence of estradiol for 24 h. Treated tissues, were injected either subcutaneously or intraperitoneally into ovarectomized nude mice with estradiol implant. Within 2-4 days of injection, ectopic endometriotic lesions develop in animals. Treatment with either progesterone or IKK inhibitor-5 (1-(4-{4-[4-(4-Chloro-phenyl)-pyrimidin-2-ylamino]-benzoyl}-piperazin-1-yl)-ethanone) was started 10 days following the injection of tissue. The compound was administered at a dose of 10 mg/kg and 30 mg/kg/animal for 15 days. […] Following the completion of treatment, animals were sacrificed, lesions developed from the transplanted tissue found in both subcutaneous and intraperitoneal sites, were measured (both size and number).
The IKK inhibitor treatment had no effect on the uterine weight and size of the animals.

[4] = system: endometriotic lesions; conditions: experimental model of endometriosis; cited from earlier work
[5] = 10 mg/kg × 15 days, listed as IKK inhibitor
[6] = 30 mg/kg × 15 days, listed as IKK inhibitor

Molecule: C#C[C@]1(O)CC[C@H]2[C@@H]3CCC4=Cc5oncc5C[C@]4(C)[C@H]3CC[C@@]21C [Danazol]
recurrence rates ([1]; after up to 4 years): 40%-50%
patients suffering from pain with improved symptoms ([1]; endometriosis patients): 66-100%

Molecule: CC(=O)[C@H]1CC[C@H]2[C@@H]3CCC4=CC(=O)CC[C@]4(C)[C@H]3CC[C@]12C [progesterone]
disease progression [2]: prevents disease progression

effect on the uterine weight and size of the animals ([3]; nude mice, 15 days treatment): no effect
Molecule: CC(=O)N1CCN(C(=O)c2ccc(Nc3nccc(-c4ccc(Cl)cc4)n3)cc2)CC1 [IKK inhibitor-5, 1-(4-{4-[4-(4-Chloro-phenyl)-pyrimidin-2-ylamino]-benzoyl}-piperazin-1-yl)-ethanone]
Lesion size, decrease ([3]; 10 mg/kg × 15 days): 90% Decrease
Lesion (% Progesterone) Compared to progesterone treated group, decrease ([3]; 10 mg/kg × 15 days): 125% Decrease
Lesion (% Progesterone) Compared to progesterone treated group, decrease [3, 5]: 125%
Lesion size, decrease [3, 5]: 90%
Lesion size, decrease ([3]; 30 mg/kg × 15 days): 75% Decrease
Lesion (% Progesterone) Compared to progesterone treated group, decrease ([3]; 30 mg/kg × 15 days): 100% Decrease
Lesion (% Progesterone) Compared to progesterone treated group, decrease [3, 6]: 100%
Lesion size, decrease [3, 6]: 75%

B1: rh-TBP-1: recombinant human TNFα binding protein (protein, UniProt P19438 30-211, looked up)
extracellular domain: LVPHLGDREKRDSVCPQGKYIHPQNNSICCTKCHKGTYLYNDCPGPGQDTDCRECESGSFTASENHLRHCLSCSKCRKEMGQVEISSCTVDRDTVCGCRKNQYRHYWSENLFQCFNCSLCLNGTVHLSCQEKQNTVCTCHAGFFLRENECVSCSNCKKSLECTKLCLPQIENVKGTEDSGTT
modifications: extracellular domain
size and severity of endometriotic lesions [4]: effective in reducing the size and severity of endometriotic lesions
